Measurements from ChEMBL document CHEMBL4024734, “Design, synthesis, biological evaluation and molecular docking studies of novel 3-aryl-4-anilino-2H-chromen-2-one derivatives targeting ERα as anti-breast cancer agents” (Bioorg Med Chem Lett, 2017).
pIC50: −log10 of the molar value.

Key:
[1] = test system: MCF7; assay: Antiproliferative activity against ER positive human MCF7 cells after 48 hrs by MTT assay; format: functional, cell-based; conditions: MCF7, 48 h
[2] = test system: Ishikawa; assay: Antiproliferative activity against human Ishikawa cells after 48 hrs by MTT assay; format: functional, cell-based
[3] = target: T1, Estrogen receptor (Homo sapiens) (UniProt P03372); assay: Displacement of fluoromone from full length recombinant human estrogen receptor alpha expressed in Spodoptera frugiperda at 100 uM measured after 2 hrs by fluorescence polarization assay relative to control
T1 sequence (whole entry): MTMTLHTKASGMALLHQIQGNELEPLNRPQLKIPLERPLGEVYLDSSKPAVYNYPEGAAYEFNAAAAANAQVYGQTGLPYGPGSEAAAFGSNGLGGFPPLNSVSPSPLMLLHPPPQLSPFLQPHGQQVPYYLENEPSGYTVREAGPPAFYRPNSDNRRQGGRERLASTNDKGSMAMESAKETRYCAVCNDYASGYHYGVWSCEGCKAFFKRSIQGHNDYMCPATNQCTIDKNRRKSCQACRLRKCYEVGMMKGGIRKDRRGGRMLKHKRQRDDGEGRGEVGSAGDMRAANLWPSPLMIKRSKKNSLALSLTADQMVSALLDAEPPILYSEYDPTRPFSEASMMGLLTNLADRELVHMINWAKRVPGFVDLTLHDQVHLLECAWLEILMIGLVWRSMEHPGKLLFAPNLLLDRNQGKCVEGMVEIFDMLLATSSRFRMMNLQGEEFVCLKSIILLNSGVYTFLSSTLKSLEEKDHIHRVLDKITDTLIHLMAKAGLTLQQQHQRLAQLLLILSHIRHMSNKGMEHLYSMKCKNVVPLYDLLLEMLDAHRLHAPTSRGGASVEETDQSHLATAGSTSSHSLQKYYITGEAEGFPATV

[4] = test system: MCF7; assay: Potency index, ratio of tamoxifen IC50 to compound IC50 against human MCF7 cells; format: functional

Row | Compound | pIC50 [1] | pIC50 [2] | RBA [3] [%] | Ratio IC50 [4]
1 | COc1ccc(-c2c(Nc3ccc(OCCN4CCCC4)cc3)c3ccc(OC)cc3oc2=O)cc1 | 5.19 | 5.03 |  | 
2 | COc1ccc(-c2c(Nc3ccc(OCCN(C)C)cc3)c3ccc(O)cc3oc2=O)cc1 | 5.02 | 4.88 |  | 
3 | COc1ccc(-c2c(Nc3ccc(OCCN4CCCCC4)cc3)c3ccc(O)cc3oc2=O)cc1 | 5.14 | 5.07 |  | 
4 | COc1ccc(-c2c(Nc3ccc(OCCN4CCCC4)cc3)c3ccc(O)cc3oc2=O)cc1 | 5.07 | 4.93 |  | 
5 | COc1ccc(-c2c(Nc3ccc(OCCN4CCN(C)CC4)cc3)c3ccc(O)cc3oc2=O)cc1 | 4.75 | 4.71 |  | 
6 | COc1ccc(-c2c(Nc3ccc(OCCN4CCOCC4)cc3)c3ccccc3oc2=O)cc1 | 4.32 | 4.31 | 17 | 
7 | CCN(CC)CCOc1ccc(Nc2c(-c3ccc(OC)cc3)c(=O)oc3cc(O)ccc23)cc1 | 5.06 | 4.83 |  | 
8 | COc1ccc(-c2c(Nc3ccc(OCCN(C)C)cc3)c3ccccc3oc2=O)cc1 | 5.06 | 4.93 |  | 
9 | CC/C(=C(\c1ccccc1)c1ccc(OCCN(C)C)cc1)c1ccccc1 [TAMOXIFEN] | 4.95 |  |  | 
10 | CCN(CC)CCOc1ccc(Nc2c(-c3ccc(OC)cc3)c(=O)oc3cc(OC)ccc23)cc1 | 4.99 | 5.05 |  | 
11 | COc1ccc(-c2c(Nc3ccc(OCCN4CCOCC4)cc3)c3ccc(O)cc3oc2=O)cc1 | < 4.00 | < 4.00 |  | 
12 | COc1ccc(-c2c(Nc3ccc(OCCN4CCCCC4)cc3)c3ccccc3oc2=O)cc1 | 5.23 | 5.06 |  | 
13 | CCN(CC)CCOc1ccc(Nc2c(-c3ccc(OC)cc3)c(=O)oc3ccccc23)cc1 | 5.12 | 4.97 |  | 
14 | COc1ccc(-c2c(Nc3ccc(OCCN4CCCCC4)cc3)c3ccc(OC)cc3oc2=O)cc1 | 5.34 | 4.94 |  | 3
15 | COc1ccc(-c2c(Nc3ccc(OCCN(C)C)cc3)c3ccc(OC)cc3oc2=O)cc1 | 5.08 | 4.91 |  | 
16 | COc1ccc(-c2c(Nc3ccc(OCCN4CCCC4)cc3)c3ccccc3oc2=O)cc1 | 5.21 | 5.03 |  | 
17 | COc1ccc(-c2c(Nc3ccc(OCCN4CCN(C)CC4)cc3)c3ccc(OC)cc3oc2=O)cc1 | 4.91 | 4.82 |  | 
18 | COc1ccc(-c2c(Nc3ccc(OCCN4CCN(C)CC4)cc3)c3ccccc3oc2=O)cc1 | 4.81 | 4.63 |  | 
19 | COc1ccc(-c2c(Nc3ccc(OCCN4CCOCC4)cc3)c3ccc(OC)cc3oc2=O)cc1 | < 4.00 | < 4.00 | 24 | 
